Two molecules from patent US20210388320A1, “DIFFERENTIATION-INDUCED CELL POPULATION FROM WHICH […] CELLS HAVE BEEN REMOVED, USE OF SAME, AND METHOD FOR PRODUCING SAME” (priority 2014, published 2021) can be followed below.

Series [1] relates to human iPS cell strain 253G1. The series can be described thus: Microscope observation and crystal violet staining after JQ1 addition (Example 5). In kind it is cell-based. The following applies: 0.2 μM or more of JQ1, 96 hours later. As for the experimental part:
(§1) Human iPS cell strain 253G1 was seeded in a 12-well plate (cell density: 20% confluency). Human fibroblasts (NHDF) were seeded in a 12-well plate (cell density: 50% confluency).
(§2) Thereafter, microscope observation was performed 96 hours later, and crystal violet staining was carried out to visualize the cells (FIG. 9).

The test system of series [2] is normal human dermal fibroblasts (NHDF). Described as above. The series is classed as cell-based. The following applies: JQ1 up to 10 μM, 96 hours. Here is the method:
as §1, §2

Series [3] relates to human iPS cell strain 253G1. The series can be described thus: Cell proliferation assay (CCK-8 assay) with JQ1 (Example 6). The following applies: 0.2 μM or more of JQ1, 96 hours later. In kind it is cell-based. As for the experimental part: Human iPS cell strain 253G1 was seeded in a 12-well plate (cell density: 20% confluency).
Thereafter, cell proliferation assay was performed 96 hours after addition (FIG. 10).
(Tetrazolium dyes change colour on reduction, which living cells bring about.)

Series [4] has as its system TRA-1-60 positive cells in iPS-CM derived from human iPS cell strain MYH-GIP4. The series is described as follows: TRA-1-60 positive rate in iPS-CM treated with JQ1 (Example 7). In kind it is cell-based. As for the experimental part: After differentiation of undifferentiated pluripotent stem cells is induced, a cell dissociation reagent, such as Accutase, is applied to about 1×10^5 to 5×10^5 differentiated cells at 37° C. for 5 minutes, and differentiated cells are dissociated and collected by centrifugation. The differentiated cells are suspended in […] of PBS, and an anti-human TRA-1-60 antibody and an isotype control antibody, both of which are fluorescently labeled, are each added. Then, the resultants are each reacted at 4° C. for 20 minutes in a dark place. After the differentiated cells are washed with PBS and collected by centrifugation, they are each suspended in […] of PBS, passed through a cell strainer, and then collected in FACS tubes. In flow cytometry, fluorescent emission is detected by a detector corresponding to labeled fluorescence, and quantified. Fractions stained with the isotype control antibody are defined as negative fractions, whereas fractions with a higher fluorescence intensity are defined as positive fractions. Among fractions stained with the anti-human TRA-1-60 antibody, the ratio belonging to the positive fractions is expressed as a percentage.
iPS-CM derived from human iPS cell strain MYH-GIP4 was seeded in a 12-well plate (cell density: 90% confluency). […] Thereafter, the TRA-1-60 positive rate was quantified 96 hours after addition. […]

The subject of series [5] is Human iPS cell strain MYH-GIP4. The series is described as follows: Microscope observation of cell death after BV addition (Example 1). The series is classed as cell-based. The following applies: 5 μg/ml BV, 48 to 72 hours later. Here is the method: Human iPS cell strain MYH-GIP4 was seeded in a 12-well plate (cell density: 20% confluency). Forty-eight hours after seeding, 0, 0.05, and 5 μg/ml of an anti-CD30 antibody-binding agent (general name: Brentuximab vedotin, abbreviated as “BV”) (trade name: Adcetris (registered trademark)) was added to each well (the agent-containing medium was exchanged every 24 hours). Thereafter, microscope observation was performed every 24 hours. Since Adcetris (registered trademark) contains additives, in addition to BV, numerical values converted from the net weight of BV were described (i.e., “0, 0.05, and 5 μg/ml as BY”).

The test system of series [6] is normal human dermal fibroblasts (NHDF). The series is described as follows: Microscope observation of cell death after BV addition, normal fibroblasts (Example 1). In kind it is cell-based. Particulars: 5 μg/ml BV, 72 hours after addition. Here is the method: Similarly, in order to examine the influence of BV on normal human dermal fibroblasts (NHDF), the same experiment as in Example 1 was conducted.
Human fibroblasts (NHDF) were seeded in a 12-well plate (cell density: 50% confluency). Forty-eight hours after seeding, 0, 0.05, and 5 μg/ml of BV was added to each well (the agent-containing medium was exchanged every 24 hours). Thereafter, microscope observation was performed every 24 hours.

Series [7] concerns NHDF. The series is described as follows: Cell proliferation assay (CCK-8 assay) with BV (Example 2). In kind it is cell-based, human. The following applies: 0-50 μg/ml BV, 24-72 hours. Here is the method: (§3) In order to clarify how the number of human iPS cells changed with various BV concentrations and BV treatment times, BV was added in vitro to human iPS cells, cell proliferation assay (CCK-8 assay), which reflects the number of cells, was performed, and viable cells were evaluated quantitatively.
Three human iPS cell strains (1231A3, MYH-GIP4, and 253G1) and NHDF were each seeded in a 12-well plate (cell density: 20% confluency). However, the cell density of NHDF was set to 50% confluency.
Forty-eight hours after seeding, 0, 5, 25, and 50 μg/ml of BV was added to each well (the agent-containing medium was exchanged every 24 hours). Thereafter, cell proliferation assay was performed 24 hours, 48 hours, and 72 hours after addition.

The test system of series [8] is human iPS cell strains (253G1, MYH-GIP4, and 201B7). The series is described as follows: Cell proliferation assay (CCK-8 assay) with BV (Example 3). The following applies: 72 hours after treatment with 50 μg/ml BV, all the human iPS cells. The series is classed as cell-based. Here is the method: as §3
(§4) Three human iPS cell strains (253G1, MYH-GIP4, and 201B7) and NHDF were each seeded in a 12-well plate (cell density: 20% confluency). However, the cell density of NHDF was set to 50% confluency.
(§5) Forty-eight hours after seeding, 0, 0.1, 0.25, 0.5, 1, 2.5, 5,10, 25, and 50 μg/ml of BV was added to each well (the agent-containing medium was exchanged every 24 hours). Thereafter, cell proliferation assay was performed 72 hours after addition.

In series [9] the test system is NHDF. The series is described as above. The series is classed as cell-based, human. Particulars: 0.1-50 μg/ml BV, 72 hours. As for the experimental part: as §3, §4, §5
The test system of series [10] is Lin28 expression in iPS-CM derived from human iPS cell strain 253G1. The series can be described thus: Lin28 expression by quantitative PCR in iPS-CM treated with BV (Example 4). The series is classed as cell-based. Here is the method: This method is targeted for human iPS cell-derived cardiomyocytes (iPS-CM). iPS-CM is considered to contain tumorigenic undifferentiated cells, in addition to cardiomyocytes.
The method for inducing differentiation into cardiomyocytes was performed according to the following document: Matsuura K, et al. Creation of human cardiac cell sheets using pluripotent stem cells. Biochem Biophys Res Commun, 2012, and 425(2) pp. 321-7. iPS-CM derived from human iPS cell strain 253G1 was seeded in a 12-well plate (cell density: 90% confluency). Forty-eight hours after seeding, 0, 5, and 10 μg/ml of BV was added to each well (the agent-containing medium was exchanged every 24 hours). Thereafter, mRNA was extracted 72 hours and 96 hours after addition. Lin28 expression levels were quantified by quantitative PCR.

As for `Cc1sc2c(c1C)C(c1ccc(Cl)cc1)=N[C@@H](CC(=O)OC(C)(C)C)c1nnc(C)n1-2` [JQ1], the “cell death (microscope observation, crystal violet staining)” value in series [1] is reported as “complete cell death was induced”; in series [2] it was “cell death was not observed”. In series [3], the cell proliferation rate is given as at most 10%. Besides, the TRA-1-60 positive rate is 0.2% in series [4] (1 μM JQ1, 96 hours after addition) and 0.1% in [4] (5 μM JQ1, 96 hours after addition).

Consider Brentuximab vedotin [BV], for which the “cell death (microscope observation)” value in series [5] was “cell death was partially induced”. For the same molecule, the “induction of cell death (macroscopic observation)” value in [6] was “induction of cell death was not observed macroscopically”. For the same molecule, in the series on NHDF [7], the “effect of BV on number of cells” value is “hardly affected”. In series [8], this molecule came in with a cell proliferation of at most 20%. The “effect of BV on cell proliferation” value in the series with NHDF [9] was “hardly affected”. The “expression of undifferentiated marker Lin28, of the control group (BV: 0 μg/ml)” value in series [10] (72-hour treatment, BV 5 and 10 μg/ml) is “about 50%”. The “Lin28 expression level, pure human iPS cells regarded as 100%” value in series [10] (72nd hour, BV-added groups) is recorded as “about 0.3%”.
